Measured values published in patent US12233130B2, “Covalently-modified steroid acid-peptides having enhanced stability and/or biological activity” (DEFENCE THERAPEUTICS INC., priority 2022, dated 2025).
Positions of bridges follow the written chain, without caps; N, C: chain ends. Residues, ends and D or L forms follow the SMILES beside them. Chains are numbered I, II in the order given. *: point of attachment. Chenodeoxycholyl = C[C@H](CCC(=O)*)[C@H]1CC[C@H]2[C@@H]3[C@H](O)C[C@@H]4C[C@H](O)CC[C@]4(C)[C@H]3CC[C@]12C; Cholyl = C[C@H](CCC(=O)*)[C@H]1CC[C@H]2[C@@H]3[C@H](O)C[C@@H]4C[C@H](O)CC[C@]4(C)[C@H]3C[C@H](O)[C@]12C

What was measured:
[1] = Stability testing (impurities by HPLC); assay type: physicochemical; conditions: dimer vs monomer
Source text: GMP synthesis of the CDCA-C-SV40 monomer yielded a white powder and the results of initial stability testing is summarized below:
As shown above, two main impurities were detected by HPLC relating to the reactivity of the free thiol group of the CDCA-C-SV40 monomer, namely impurities resulting from oxidation of the thiol group (Impurity A) and the formation an intermolecular disulfide bond via the thiol groups of two CDCA-C-SV40 monomers, producing a (CDCA-C-SV40)2 dimer (Impurity B).
To attempt to improve stability, the synthesis protocol of CDCA-C-SV40 was modified to produce the conjugate directly in its dimerized form (Impurity B). […] At 25° C., total impurities rose only slightly from 1.6% at Day 0 to 2.1% after 3 months. At 40° C., total impurities rose from 1.6% at Day 0 to 1.7% after 5 days, 2.4% after 10 days, and to 3.7% after 30 days.

[2] = system: 4T1, EL4, CT-26, B16 and E0771 tumor cell lines; assay: Cell death by flow cytometry on five tumor cell lines; assay type: cell-based; conditions: 95 and 190 μM
Method: (§1) Apoptosis analysis was conducted by flow-cytometry. Briefly, target cells were first treated then washed. Treated cells were then re-suspended in Annexin-V staining buffer prior to staining with Annexin-V and propidium iodine (PI). Fifteen minutes later, cells were washed prior to analysis using BD FACS™ Diva on CANTOII™.

EL4 lymphoma = assay: EL4 tumor model in vivo (tumor growth, survival); design: species or system mice; conditions: highest tested dose (190 μM), every 48 h, 5 injections
Method: Female C57BL/6 mice (n=10/group) received a SC injection of 5×10^5 EL4 cells at Day 0. […] For all depletion studies, antibodies were injected via the intraperitoneal route at days 0, 3 and 6 at a concentration of 200 μg/injection. Tumor size and animal survival for all of the above listed in vivo studies was followed thereafter using a digital caliber until reaching endpoints (ulceration or a tumor volume ≥1000 mm^3).

macrophages = assay: Apoptosis analysis by flow cytometry on normal cells; assay type: cell-based; conditions: 190 μM
Method: as §1

[3] = system: mesenchymal stem cells (MSCs); assay: as above; assay type: cell-based; conditions: 190 μM
Method: as §1

EL4 lymphoma cells = assay: Apoptosis analysis by flow cytometry (Annexin-V/PI); assay type: cell-based
Method: as §1

[4] = system: bone marrow-derived dendritic cells (DCs); assay: Apoptosis analysis by flow cytometry on normal cells; assay type: cell-based, mouse; conditions: 190 μM
Method: Mouse bone marrow derived DCs (BMDCs) were generated by flushing the whole marrow from mouse femurs using RPMI™ 1640 supplemented with 10% fetal bovine serum (FBS), 50 U/mL Penicillin-Streptomycin, 2 mM L-glutamine, 10 mM HEPES, 1% MEM Non-essential Amino Acids, 1 mM Sodium Pyruvate, 0.5 mM β-mercaptoethanol. Following red blood cell lysis, cells were then cultured in media supplemented with 50 ng/ml murine recombinant GM-CSF. The media was changed on days 2, 4, 6 and 8. On day 9, the media was replaced to include recombinant murine GM-CSF and LPS from Escherichia coli 0111 (1 ng/mL) to stimulate DC maturation. Mature DCs were assessed by flow cytometry for their surface expression of CD3, CD19, NK1.1, CD11c, CD80, CD86, and I-A^b.
as §1

[5] = system: EL4 lymphoma, B16 melanoma, E0771 breast cancer, CT-26 colon carcinoma, 4T1 breast cancer, MBA-MD-468, H460 and A549 lung cancer cells; assay: Cytotoxicity screen of bile acid-SV40 conjugates (Annexin-V) on eight cancer cell lines; assay type: cell-based; conditions: 190 μM, all eight tumor cell lines tested
Method: Annexin-V staining percentage after treatment with different bile acid-SV40 conjugates (190 μM) is shown relative to live cancer cells (i.e., PBS treated cancer cells) by flow cytometry. Cancer cell lines tested were EL4 lymphoma, B16 melanoma, E0771 breast cancer, CT-26 colon carcinoma, 4T1 breast cancer, MBA-MD-468 triple-negative breast cancer, human H460 lung cancer, and human A549 lung cancer. […] SV40 alone was also tested as a negative control.
as §1

EL4 cells = assay: Endosomal escape: apoptosis assay with exogenous cytochrome C; assay type: cell-based; conditions: cytochrome C alone
Method: Endosomal leakage was assessed using two different approaches; the first strategy utilizes the FRET sensor CCF4-AM, a β-lactamase substrate. Briefly, EL4 cells were treated with 1 μM CCF4-AM for 1 h followed by the addition of 10 mg/ml of β-lactamase in the presence or absence of CA-C-SV40 (at concentration of 190 μM) for 3 h at 37° ° C. The cells were then washed, and fresh media added for an incubation period of 16 h at 37° C. The loss of FRET signal between the coumarin (donor) and fluorescein (acceptor) fluorophores was quantified by flow cytometry. For the apoptosis assay, 10^5 EL4 cells were first supplemented with 10 mg/ml of exogenous rCyt-C for 6 h at 37° C. in the presence or absence of CA-C-SV40 (at a concentration of 190 μM). Once the incubation period completed, the cells were washed with ice cold PBS, then stained for Annexin-V according to manufacturer's instructions prior to analysis using BD FACS Diva on CANTOII.
Cytochrome C is a protein that is normally entrapped in the mitochondria but can be released upon intrinsic signaling known to trigger apoptosis. An experiment was designed where recombinant cytochrome C was added to EL4 cells either alone or in combination with CA-C-SV40 ([…]) (FIG. 3A).

CC(C)[C@H](NC(=O)[C@H](CCCCN)NC(=O)[C@H](CCCNC(=N)N)NC(=O)[C@H](CCCCN)NC(=O)[C@H](CCCCN)NC(=O)[C@H](CCCCN)NC(=O)[C@@H]1CCCN1C(=O)CNC(=O)[C@H](Cc1ccc(O)cc1)NC(=O)CNC(=O)[C@H](CSSC[C@H](NC(=O)CC[C@@H](C)[C@H]1CC[C@H]2[C@@H]3[C@H](O)C[C@@H]4C[C@H](O)CC[C@]4(C)[C@H]3CC[C@]12C)C(=O)NCC(=O)N[C@@H](Cc1ccc(O)cc1)C(=O)NCC(=O)N1CCC[C@H]1C(=O)N[C@@H](CCCCN)C(=O)N[C@@H](CCCCN)C(=O)N[C@@H](CCCCN)C(=O)N[C@@H](CCCNC(=N)N)C(=O)N[C@@H](CCCCN)C(=O)N[C@H](C(=O)NCC(=O)NCC(=O)O)C(C)C)NC(=O)CC[C@@H](C)[C@H]1CC[C@H]2[C@@H]3[C@H](O)C[C@@H]4C[C@H](O)CC[C@]4(C)[C@H]3CC[C@]12C)C(=O)NCC(=O)NCC(=O)O [(CDCA-C-SV40)2] (I: Chenodeoxycholyl-CGYGPKKKRKVGG-OH / II: Chenodeoxycholyl-CGYGPKKKRKVGG-OH; disulfide I:1-II:1)
stability relative to corresponding monomer [1]: markedly higher stability
cytotoxicity [2]: potent cytotoxicity

CSCC[C@H](NC(=O)[C@H](CS)NC(=O)CC[C@@H](C)[C@H]1CC[C@H]2[C@@H]3[C@H](O)C[C@@H]4C[C@H](O)CC[C@]4(C)[C@H]3C[C@H](O)[C@]12C)C(=O)NCC(=O)N[C@@H](CCCNC(=N)N)C(=O)N[C@H](C(=O)N[C@@H](CCCNC(=N)N)C(=O)N[C@H](C(=O)N[C@@H](CCCCN)C(=O)N[C@H](C(=O)N[C@H](C(=O)N[C@@H](CCCCN)C(=O)N[C@@H](CCCCN)C(=O)N[C@@H](C)C(=O)N[C@@H](C)C(=O)NCC(=O)NCC(=O)O)C(C)C)[C@@H](C)O)[C@@H](C)O)C(C)C [CA-C-NLS1 RPS17] (Cholyl-CMGRVRTKTVKKAAGG-OH; N-terminus and C-terminus assumed)
tumor growth (EL4 lymphoma): significantly delayed tumor growth

CC[C@H](C)[C@H](NC(=O)[C@H](CCCNC(=N)N)NC(=O)[C@H](CCCCN)NC(=O)[C@H](CCSC)NC(=O)[C@H](CC(C)C)NC(=O)[C@H](Cc1c[nH]cn1)NC(=O)[C@@H](NC(=O)[C@@H](NC(=O)[C@H](Cc1ccc(O)cc1)NC(=O)CNC(=O)[C@H](C)NC(=O)[C@@H](NC(=O)[C@H](CCCCN)NC(=O)[C@H](CC(N)=O)NC(=O)[C@H](CCCNC(=N)N)NC(=O)[C@H](CC(C)C)NC(=O)[C@H](CCCCN)NC(=O)[C@H](CCCCN)NC(=O)[C@H](CO)NC(=O)[C@H](CS)NC(=O)CC[C@@H](C)[C@H]1CC[C@H]2[C@@H]3[C@H](O)C[C@@H]4C[C@H](O)CC[C@]4(C)[C@H]3C[C@H](O)[C@]12C)[C@@H](C)CC)C(C)C)[C@@H](C)O)C(=O)O [CA-C-NLS3 RPS17] (Cholyl-CSKKLRNKIAGYVTHLMKRI-OH; N-terminus and C-terminus assumed)
tumor growth (EL4 lymphoma): significantly delayed tumor growth

CC(C)[C@H](NC(=O)[C@H](CCCCN)NC(=O)[C@H](CCCNC(=N)N)NC(=O)[C@H](CCCCN)NC(=O)[C@H](CCCCN)NC(=O)[C@H](CCCCN)NC(=O)[C@@H]1CCCN1C(=O)CNC(=O)[C@H](Cc1ccc(O)cc1)NC(=O)CNC(=O)[C@H](CS)NC(=O)CC[C@@H](C)[C@H]1CC[C@H]2[C@@H]3[C@H](O)C[C@@H]4C[C@H](O)CC[C@]4(C)[C@H]3C[C@H](O)[C@]12C)C(=O)NCC(=O)NCC(=O)O [CA-C-SV40] (Cholyl-CGYGPKKKRKVGG-OH)
apoptosis in normal or healthy cells (macrophages): induce apoptosis
apoptosis in normal or healthy cells [3]: induce apoptosis
cytotoxicity of cholic acid-NLS conjugates (EL4 lymphoma cells; 190 μM, Annexin-V staining): notably higher than that of CA-C-GWG-SV40
apoptosis in normal or healthy cells [4]: induce apoptosis

CC(C)[C@H](NC(=O)[C@H](CCCCN)NC(=O)[C@H](CCCNC(=N)N)NC(=O)[C@H](CCCCN)NC(=O)[C@H](CCCCN)NC(=O)[C@H](CCCCN)NC(=O)[C@@H]1CCCN1C(=O)CNC(=O)[C@H](Cc1ccc(O)cc1)NC(=O)CNC(=O)[C@H](CS)NC(=O)CC[C@@H](C)[C@H]1CC[C@H]2[C@@H]3[C@H](O)C[C@@H]4C[C@H](O)CC[C@]4(C)[C@H]3CC[C@]12C)C(=O)NCC(=O)NCC(=O)O [CDCA-C-SV40] (Chenodeoxycholyl-CGYGPKKKRKVGG-OH)
cytotoxic activity [5]: 100%

CC(=O)N[C@@H](CS)C(=O)O [NAC, N-acetylcysteine]
rescue from CA-C-SV40-triggered cell death (EL4 lymphoma cells; CA-C-SV40 at higher doses (IC100)): incomplete but significant blockade

SV40 NLS: nuclear localization signal from SV40 large T-antigen (SEQ ID NO: 2), tested alone as negative control
cytotoxic activity (EL4 lymphoma cells; separately, at any of the concentrations tested): did not exhibit any cytotoxic activity

cytochrome C: recombinant cytochrome C added to EL4 cells as cargo
cell death (EL4 cells): did not trigger cell death
